# In PMC6248931 (Science Advances, 2018):
# How the values were obtained:
# influenza virus = details: cited from earlier work
# HIV [1] = details: cited from earlier work
# HIV [2] = details: human, in vivo; cited from earlier work
# HIV HR1-HR2 interaction = type: binding
# HIV-1 pseudovirions = type: cell-based; details: 1 μM
# HIV HR2 peptide = HIV HR2 peptide (Human immunodeficiency virus type 1, UniProt P03377); type: binding
# Chain of HIV HR2 peptide (P03377 633-666 limits assumed): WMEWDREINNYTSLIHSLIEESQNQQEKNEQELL
smiles,measurement,setting,value
"CC1(C)CC[C@]2(C(=O)O)CC[C@]3(C)C(=CC[C@@H]4[C@@]5(C)CC[C@H](O)C(C)(C)[C@@H]5CC[C@]43C)[C@@H]2C1 [OA, oleanolic acid]",inhibitory effect on influenza virus entry,influenza virus,significant inhibitory effect
same,inhibitory activity against HIV infection,HIV [1],show inhibitory activity
C=C(C)[C@@H]1CC[C@]2(C(=O)O)CC[C@]3(C)[C@H](CC[C@@H]4[C@@]5(C)CC[C@H](OC(=O)CC(C)(C)C(=O)O)C(C)(C)[C@@H]5CC[C@]43C)[C@@H]12 [bevirimat],efficacy in clinical trials,HIV [2],promising efficacy
C=C(C)[C@@H]1CC[C@]2(C(=O)NCCCCCCCC(=O)N(CCCC3(C)N=N3)CC(=O)O)CC[C@]3(C)C(CCC4[C@@]5(C)CC[C@H](O)C(C)(C)C5CC[C@]43C)C12 (stereo partly shown) [Y20],effect on HIV-HR1/HIV-HR2 affinity (in words),HIV HR1-HR2 interaction,significantly reduced their affinity
same,inhibitory activity on the infectivity of HIV-1 pseudovirions,HIV-1 pseudovirions,exhibited inhibitory activity
same,binding to HIV-HR2 (in words),HIV HR2 peptide,binds tightly
"C=C(C)[C@@H]1CC[C@]2(C(=O)O)CC[C@]3(C)[C@H](CC[C@@H]4[C@@]5(C)CC[C@H](O)C(C)(C)[C@@H]5CC[C@]43C)[C@@H]12 [BA, betulinic acid]",inhibitory activity against HIV infection,HIV [1],show inhibitory activity
